In US20250188079A1, “INHIBITING CYCLIC AMP-RESPONSIVE ELEMENT-BINDING PROTEIN (CREB)” (Forma Therapeutics, Inc., priority 2019, published 2025):

Molecular target: CBP (Homo sapiens (Human), UniProt Q92793)
Experiment: HTRF biochemical assay for CBP activity (TR-FRET, bromodomain)
Type: binding
Conditions: geometric mean, 10-point 3-fold dilution 33 μM to 1.7 nM, read-out: BROMO IC50 TRF TB CBP (μM gmean)
Experimental: Example 1: HTRF Biochemical Assay for CBP Activity
The assay was performed in a final volume of 6 μL in assay buffer containing 50 mM Hepes (pH 7.5, (0.5M Hepes, pH 7.5 solution; Teknova H1575)), 0.5 mM GSH, 0.01% BGG (0.22 p M filtered, Sigma, G7516-25G), 0.005% BSA (0.22 μM filtered, EMD Millipore Corporation, 126575) and 0.01% Triton X-100 (Sigma, T9284-10L). Nanoliter quantities of 10-point, 3-fold serial dilution in DMSO were pre-dispensed into 1536 assay plates (Corning, #3724BC) for a final test concentration of 33 μM to 1.7 nM, top to lowest dose, respectively. 3 μL of 2×Protein and 3 μL of 2×Peptide Ligand were added to assay plates (pre-stamped with compound). Plates were incubated for varying times at room temperature prior to measuring the signal. TR-FRET (Time-Resolved Fluorescence Resonance Energy Transfer) was measured on the PHERAstar (BMG, equipped with HTRF optic module [337/520/490]) or on the Envision (PerkinElmer, equipped with the TRF Laser unit, TRF dual mirror D400/D505 and emission filters M520 and M495). Data were reported as percent inhibition compared with control wells based on the following equation: % inh=1−((TR-FRET ratio−AveLow)/(AveHigh−AveLow)) where TR-FRET ratio=(Fluorescence at 520 nm/Fluorescence at 490 nm)*10000), AveLow=average TR-FRET ratio of no enzyme control (n=32), and AveHigh=average TR-FRET ratio of DMSO control (n=32). IC50 values were determined by curve fitting of the standard 4 parameter logistic fitting algorithm included in the Activity Base software package: IDBS XE Designer Model205. Data is fitted using the Levenburg Marquardt algorithm. As set forth in Table 2 below, an IC50 value of greater than or equal to 0.001 μM and less than or equal to 0.01 μM is marked “++++”; a value greater than 0.01 μM and less than or equal to 0.1 μM is marked “+++”; a value greater than 0.1 μM and less than or equal to 1 μM is marked “++”; and a value greater than 1 μM and less than 1000 μM is marked “+.” Compounds that were not tested in a particular assay are marked “NT.”

CBP, sequence (Q92793 1085-1192): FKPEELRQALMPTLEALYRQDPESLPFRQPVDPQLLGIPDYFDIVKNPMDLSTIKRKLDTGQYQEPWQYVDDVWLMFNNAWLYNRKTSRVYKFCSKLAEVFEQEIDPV

IC50 [µM]	SMILES
0.001 to 0.01	COC(=O)N1CCc2ccc3c(nc(C4CCCCC4)n3CCc3ccc(F)c(C(=O)O)c3)c2C1 [Compound 160]
0.1 to 1	COC(=O)N1CCc2ccc3c(nc([C@H]4CC[C@H](C(=O)NS(C)(=O)=O)CC4)n3[C@H](C)Cc3ccccc3)c2C1 (single isomer, unassigned) [Compound 290]
0.01 to 0.1	COC(=O)N1CCc2ccc3c(nc(C4CCCCC4)n3C[C@@H]3CCCC[C@H]3C(=O)O)c2C1 [Compound 227]
0.1 to 1	COC(=O)N1CCc2ccc3c(nc([C@H]4CC[C@@](C)(C(=O)O)CC4)n3[C@@H](CO)Cc3ccccc3)c2C1 [Compound 341]
0.01 to 0.1	COC(=O)N1CCc2ccc3c(nc([C@H]4CCC[C@H](C(=O)O)C4)n3C[C@H]3CC[C@H](OC)CC3)c2C1 [Compound 255]
0.1 to 1	COC(=O)N1CCc2ccc3c(nc([C@H]4CC[C@@H](S(N)(=O)=O)CC4)n3[C@H](C)Cc3ccccc3)c2C1 [Compound 310]
0.001 to 0.01	COC(=O)N1CCc2ccc3c(nc([C@H]4CC[C@H](C(=O)O)CC4)n3[C@H](C)Cc3cccnc3)c2C1 [Compound 111]
0.001 to 0.01	COC(=O)N1CCc2c(Cl)cc3c(nc(C4CCCCC4)n3C[C@@H](C(=O)O)c3ccccc3)c2C1 [Compound 56]
0.01 to 0.1	COC(=O)N1CCc2ccc3c(nc([C@H]4CC[C@H](C(=O)O)CC4)n3[C@@H](C)Cc3ccncc3)c2C1 [Compound 216]
0.01 to 0.1	COC(=O)N1CCc2ccc3c(nc(C4CCN(S(=O)(=O)NC(C)=O)CC4)n3[C@@H](C)Cc3ccccc3)c2C1 [Compound 178]
0.01 to 0.1	COC(=O)N1CCc2ccc3c(nc(N4CCN(C(C)=O)CC4)n3[C@@H](C)Cc3cccnc3)c2C1 [Compound 234]
0.01 to 0.1	COC(=O)N1CCc2ccc3c(nc([C@@H]4CCC[C@@H](C(=O)O)C4)n3C[C@H]3CC[C@H](OC)CC3)c2C1 [Compound 262]
0.001 to 0.01	COC(=O)N1CCc2ccc3c(nc(C4CCN(C(C)=O)CC4)n3C[C@@H](C(=O)O)c3ccccc3)c2C1 [Compound 62]
0.1 to 1	COC(=O)N1CCc2ccc3c(nc(N4CCC(C(=O)O)CC4)n3[C@H](C)Cc3cc(F)cc(F)c3)c2C1 [Compound 308]
0.01 to 0.1	COC(=O)N1CCc2ccc3c(nc([C@H]4CC[C@H](C(=O)O)CC4)n3[C@@H](C)[C@H](O)c3ccccc3)c2C1 [Compound 268]
0.1 to 1	COC(=O)N1CCc2ccc3c(nc([C@H]4CC[C@H](C(=O)O)CC4)n3[C@H]3CCc4ccccc4C3)c2C1 [Compound 315]
0.001 to 0.01	COC(=O)N1CCc2ccc3c(nc(C4CCCCC4)n3[C@H](C)C[C@H]3CCCC[C@@H]3C(=O)O)c2C1 [Compound 112]
0.001 to 0.01	COC(=O)N1CCc2ccc3c(nc(N4CCC(C(=O)O)CC4)n3[C@@H](C)Cc3cc(F)cc(F)c3)c2C1 [Compound 45]
0.001 to 0.01	COC(=O)N1CCc2ccc3c(nc(-c4ccncc4)n3[C@@H](C)Cc3ccccc3)c2C1 [Compound 109]
0.01 to 0.1	COC(=O)N1CCc2ccc3c(nc([C@@H]4CCC[C@@H](C(=O)O)C4)n3C[C@H]3CC[C@@H](OC)CC3)c2C1 [Compound 259]
0.001 to 0.01	COC(=O)N1CCc2ccc3c(nc([C@H]4CC[C@H](C(=O)O)CC4)n3[C@@H](C)Cc3cccc(F)c3F)c2C1 [Compound 71]
0.1 to 1	COC(=O)N1CCc2ccc3c(nc([C@H]4CC[C@H](C(=O)O)CC4)n3[C@H](C)Cc3ccc4c(c3)CCO4)c2C1 [Compound 332]
0.001 to 0.01	COC(=O)N1CCc2ccc3c(nc(-c4ccc(C(=O)O)cc4)n3[C@@H](C)Cn3cc(Cl)cn3)c2C1 [Compound 132]
0.001 to 0.01	COC(=O)N1CCc2ccc3c(nc(C4CCCCC4)n3C[C@](C)(C(=O)O)c3ccccc3)c2C1 [Compound 135]
0.01 to 0.1	COC(=O)N1CCc2ccc3c(nc([C@H]4CC[C@H](C(=O)O)CC4)n3[C@H](C)Cc3cccc(F)c3F)c2C1 [Compound 266]
0.001 to 0.01	COC(=O)N1CCc2ccc3c(nc([C@H]4CC[C@H](C(=O)O)CC4)n3C[C@H]3CCc4ccccc4C3)c2C1 [Compound 169]
0.1 to 1	COC(=O)N1CCc2c(Cl)cc3c(nc([C@H]4CC[C@H](C(=O)O)CC4)n3[C@H](C)Cc3ccccc3)c2C1 [Compound 305]

IC50 [µM]	SMILES
0.01 to 0.1	COC(=O)N1CCc2ccc3c(nc([C@H]4CC[C@@H](C(=O)O)C4)n3[C@@H](C)Cc3ccccc3C)c2C1 [Compound 218]
0.001 to 0.01	COC(=O)N1CCc2ccc3c(nc([C@H]4CCCOC4)n3C[C@@H](C(=O)O)c3ccc(C)cc3)c2C1 [Compound 58]
0.001 to 0.01	COC(=O)N1CCc2ccc3c(nc([C@H]4CCC[C@H](C(=O)O)C4)n3[C@@H](C)Cc3ccccc3C)c2C1 (single isomer, unassigned) [Compound 18]
0.1 to 1	COC(=O)N1CCc2ccc3c(nc([C@H]4CC[C@H](C(=O)O)CC4)n3[C@@H](C)C[C@H]3CCCOC3)c2C1 [Compound 296]
0.001 to 0.01	COC(=O)N1CCc2ccc3c(nc([C@H]4CC[C@H](C(=O)O)CC4)n3[C@@H](C)Cc3ccc(C)c(F)c3)c2C1 (single isomer, unassigned) [Compound 2]
0.001 to 0.01	COC(=O)N1CCc2ccc3c(nc(-c4cccc(CC(=O)O)c4)n3[C@@H](C)Cn3cc(Cl)cn3)c2C1 [Compound 113]
0.01 to 0.1	COC(=O)N1CCc2ccc3c(nc([C@H]4CC[C@H](C(=O)O)CC4)n3[C@@H](C)CC3CCOCC3)c2C1 [Compound 188]
0.001 to 0.01	COC(=O)N1CCc2ccc3c(nc(N4CCC(C)(C(=O)O)CC4)n3[C@@H](C)Cc3ccccc3)c2C1 [Compound 75]
0.001 to 0.01	COC(=O)N1CCc2ccc3c(nc([C@H]4CC[C@H](C(=O)O)CC4)n3[C@@H](CO)Cc3ccccc3)c2C1 [Compound 151]
0.001 to 0.01	COC(=O)N1CCc2ccc3c(nc(C4CCCCC4)n3C[C@H](C(=O)NS(C)(=O)=O)c3ccccc3)c2C1 (single isomer, unassigned) [Compound 22]
0.001 to 0.01	COC(=O)N1CCc2ccc3c(nc(C4CCN(C(=O)O)CC4)n3[C@H](C)Cc3ccccc3)c2C1 [Compound 134]
0.01 to 0.1	COC(=O)N1CCc2ccc3c(nc(-c4cccc(C(C)(C)C(=O)O)c4)n3[C@@H](C)Cn3cc(Cl)cn3)c2C1 [Compound 185]
0.01 to 0.1	COC(=O)N1CCc2ccc3c(nc([C@H]4CCC[C@H](C(=O)O)C4)n3Cc3cncc(Cl)n3)c2C1 [Compound 254]
0.001 to 0.01	COC(=O)N1CCc2ccc3c(nc([C@H]4CC[C@H](C(=O)O)CC4)n3[C@H](C)C(F)(F)c3ccccc3)c2C1 [Compound 125]
0.01 to 0.1	COC(=O)N1CCc2ccc3c(nc(C4CCCCC4)n3C[C@@H](O)c3cccc(C(=O)O)c3)c2C1 [Compound 199]
0.001 to 0.01	COC(=O)N1CCc2ccc3c(nc([C@H]4CC[C@H](C(=O)O)CC4)n3[C@H](C)Cc3ccccc3F)c2C1 [Compound 51]
1 to 1000	COC(=O)N1CCc2ccc3c(nc(C4CCN(S(=O)(=O)NC(C)=O)CC4)n3[C@H](C)Cc3ccccc3)c2C1 [Compound 348]
0.001 to 0.01	COC(=O)N1CCc2ccc3c(nc([C@H]4C[C@@H](C(=O)O)C4)n3[C@@H](C)Cc3ccccc3C)c2C1 [Compound 130]
0.01 to 0.1	COC(=O)N1CCc2ccc3c(nc(C4CCCC4)n3C[C@H](CC(=O)O)c3ccccc3)c2C1 (single isomer, unassigned) [Compound 174]
0.01 to 0.1	COC(=O)N1CCc2ccc3c(nc([C@H]4CC[C@H](C(=O)O)CC4)n3[C@H](C)C[C@]3(C)CC[C@@H](OC)CC3)c2C1 [Compound 267]
0.01 to 0.1	CNC(=O)N1CCc2ccc3c(nc([C@H]4CC[C@H](C(=O)O)CC4)n3[C@@H](C)Cc3ccccc3)c2C1 [Compound 228]
0.001 to 0.01	COC(=O)N1Cc2c(ccc3c2nc([C@H]2CC[C@H](C(=O)O)CC2)n3[C@H](C)Cc2ccc(F)c(F)c2)C[C@@H]1C [Compound 129]
0.001 to 0.01	COC(=O)N1CCc2c([C@@H]3CCOC3)cc3c(nc([C@H]4CC[C@H](C(=O)O)CC4)n3[C@@H](C)Cc3ccccc3)c2C1 [Compound 50]
0.01 to 0.1	COC(=O)N1CCc2ccc3c(nc(C4CCCCC4)n3CC[C@H]3CCC[C@@H](C(=O)O)C3)c2C1 [Compound 177]
0.01 to 0.1	COC(=O)N1CCc2ccc3c(nc([C@H]4CC[C@H](C(=O)O)CC4)n3[C@@H](C)C[C@H]3CC[C@@H](OC)CC3)c2C1 [Compound 220]
0.001 to 0.01	COC(=O)N1CCc2ccc3c(nc(C4CCCCC4)n3CC[C@@H]3CCC[C@H](C(=O)O)C3)c2C1 [Compound 131]
0.01 to 0.1	COC(=O)N1CCc2ccc3c(nc([C@H]4CCC[C@H](C(=O)O)C4)n3Cc3ccc(OC(F)F)cc3)c2C1 [Compound 209]
